According to patent US12564650B2, “Carbonic anhydrase IX-targeting radioactive diagnostic and therapeutic medicament and method for preparing same” (NORROY BIOSCIENCE CO., LTD., priority 2022, dated 2026):

System: 786-O tumor (human renal clear cell adenocarcinoma cells)
Test: Competitive inhibition assay in 786-O mouse model
Assay type: in vivo, NOD-SCID mice
Conditions: cold medicament 40 times the mass of hot medicament, 30 minutes before; scan 1 hour
From the text: The experimental 786-O animal model was provided by Biaodu Baiao Biotechnology (Shanghai) Co., Ltd. The model was a 786-O tumor subcutaneous heterotopic transplant tumor model established based on NOD-SCID mice. This model was a mouse model constructed for human renal clear cell adenocarcinoma cells. Two animal models were randomly selected and injected with cold medicament NYM0005 through tail vein. The injection dose was 40 times the mass of the injected hot medicament (^68Ga-NYM0005). The order of administration was as follow: injecting the hot medicament ^68Ga-NYM0005 30 minutes after the administration of the cold medicament. After pre-anesthesia with an appropriate concentration of isoflurane/oxygen mixed gas prior to scanning, the animals were placed in a MicroPET/CT imaging cabin (SNPC-303 SuperNova, Pingsheng Medical Technology (Kunshan) Co., Ltd.), and anesthesia was maintained with isoflurane/air mixed gas. A MicroPET/CT scan was performed 1 hour after the administration of the hot medicament. The scanned images were obtained after reconstruction by means of the device software, and the scanned images were analyzed using PMOD software.

Question: How did the “blocking of 68Ga-NYM005 uptake of the tumor by cold medicament” value turn out when `NS(=O)(=O)c1nnc(NC(=O)CCCc2cn(CCCCC(=O)N[C@@H](CC(=O)O)C(=O)NCCCCNC(=O)CN3CCN(CC(=O)O)CCN(CC(=O)O)CC3)nn2)s1` [NYM005] was run?
Answer: Its value is “significantly block”.
